Source: patent US20250025459A1, “COVID-19 TREATMENT MEDICINE CHARACTERIZED BY COMBINING 3CL PROTEASE INHIBITOR AND COVID-19 TREATMENT DRUG” (priority 2021, published 2025)
Like-named read-outs stand apart in the source and are kept apart here.

Legend:
[1] = system: SARS-CoV-2 hCoV-19/Japan/TY7-501/2021; assay: Combination effect confirmation test, VeroE6/TMPRSS2 cells, strain TY7-501; format: cell-based
[2] = system: SARS-CoV-2 hCoV-19/Japan/TY11-927-P1/2021; assay: Combination effect confirmation test, VeroE6/TMPRSS2 cells, strain TY11-927-P1; format: cell-based; conditions: for EC50: Severe acute respiratory syndrome coronavirus 2, VeroE6/TMPRSS2, 72 h, single agent; for EC50 of single agent: VeroE6/TMPRSS2, 3 days
[3] = system: SARS-CoV-2 hCoV-19/Japan/TY/WK-521/2020; assay: Combination effect confirmation test, VeroE6/TMPRSS2 cells, strain WK-521; format: cell-based; conditions: for EC50 of single agent: VeroE6/TMPRSS2, 3 days
SARS-CoV-2 = assay: microbe, parasite or virus in culture; format: cell-based; conditions: Severe acute respiratory syndrome coronavirus 2, 72 h; VeroE6/TMPRSS2 cells, 100 TCID50/well, 3 days; class symbols
SARS-CoV-2 3CL Protease = SARS-CoV-2 3CL Protease (Severe acute respiratory syndrome coronavirus 2 (2019-nCoV) (SARS-CoV-2), UniProt P0DTD1); assay: biochemical; format: biochemical
[4] = Severe acute respiratory syndrome coronavirus 2, VeroE6/TMPRSS2, 72 h, single agent, hCoV-19/Japan/TY7-501/2021, […]
[5] = Severe acute respiratory syndrome coronavirus 2, 72 h, single agent, hCoV-19/Japan/TY/WK-521/2020, VeroE6/TMPRSS2, 1000 TCID50/well, 3 days
[6] = read-out: 50% SARS-CoV-2 3CL protease inhibitory concentration (IC50)
[7] = recombinant enzyme, RapidFire MS, class symbols, read-out: IC50
[8] = single agent, hCoV-19/Japan/TY/WK-521/2020

Row | Molecule | EC50 (SARS-CoV-2) | other results
1 | Cn1cnc(Cn2c(=O)[nH]/c(=N\c3cc4cn(C)nc4cc3Cl)n(Cc3cc(F)c(F)cc3F)c2=O)n1 | – | EC50 [1, 4]: 500 nM; EC50 [2]: 410 nM; EC50 [3, 5]: 370 nM
2 | CN(C)C(=O)COC(=O)Cc1ccc(OC(=O)c2ccc(NC(=N)N)cc2)cc1 [Camostatmesylate, reference compound] | – | EC50 [3, 5]: 1300 nM
3 | Cc1cncc(-n2c(=O)nc(Nc3cc4cn(C)nc4cc3F)n(Cc3cc(F)c(F)c(F)c3)c2=O)c1 [Compound I-002] | < 1000 nM | –
4 | Cc1cncc(-n2c(=O)nc(Nc3cc4cn(C)nc4cc3Cl)n(Cc3cc(F)c(F)c(F)c3)c2=O)c1 [Compound I-003] | – | IC50 (SARS-CoV-2 3CL Protease; [6]): 14 nM; EC50 [3, 5]: 177 nM
5 | Cc1cncc(-n2c(=O)nc(Nc3cc4cn(C)nc4cc3C)n(Cc3cc(F)c(F)c(F)c3)c2=O)c1 [Compound I-004] | 1000 to 10000 nM | –
6 | N#Cc1cc(Cn2c(Nc3ccc4nn(CC(F)F)cc4c3)nc(=O)n(-c3cncc4ccccc34)c2=O)ccc1F [Compound I-009] | < 1000 nM | –
7 | Cc1cncc(-n2c(=O)nc(Nc3ccc4nn(CC(F)F)cc4c3)n(Cc3ccc(F)c(C#N)c3)c2=O)c1 [Compound I-011] | < 1000 nM | –
8 | Cc1cncc(-n2c(=O)nc(Nc3cc4cn(C)nc4cc3Cl)n(Cc3cc(F)c(F)cc3F)c2=O)c1 [Compound I-012] | – | IC50 (SARS-CoV-2 3CL Protease; [6]): 9.1 nM
9 | Cc1cc2nn(C)cc2cc1Nc1nc(=O)n(-c2cncc3ccccc23)c(=O)n1Cc1cc(F)c(F)c(F)c1 [Compound I-013] | 1000 to 10000 nM | IC50 (SARS-CoV-2 3CL Protease; [7]): < 100 nM
10 | Cn1cc2cc(Nc3nc(=O)n(-c4cncc5ccccc45)c(=O)n3Cc3cc(F)c(F)c(F)c3)c(Cl)cc2n1 [Compound I-014] | < 1000 nM | –
11 | Cn1cc2cc(Nc3nc(=O)n(-c4cncc5ccccc45)c(=O)n3Cc3ccc(F)c(C#N)c3)c(Cl)cc2n1 [Compound I-015] | < 1000 nM | –
12 | Cn1cc2cc(Nc3nc(=O)n(-c4cncc5ccccc45)c(=O)n3Cc3cc(F)c(F)c(F)c3)ccc2n1 [Compound I-016] | < 1000 nM | –
13 | Cc1cncc(-n2c(=O)nc(Nc3cc4cn(C)nc4cc3F)n(Cc3ccc(F)c(C#N)c3)c2=O)c1 [Compound I-018] | < 1000 nM | –
14 | Cc1cncc(-n2c(=O)nc(Nc3cc4cn(C)nc4cc3C)n(Cc3ccc(F)c(C#N)c3)c2=O)c1 [Compound I-019] | < 1000 nM | –
15 | O=c1nc(Nc2cc3cn(CCN4CCOCC4)nc3cc2Cl)n(Cc2cc(F)c(F)c(F)c2)c(=O)n1-c1cncc2ccccc12 [Compound I-020] | 1000 to 10000 nM | –
16 | Cn1cnc(Cn2c(=O)nc(Nc3cc4cn(C)nc4cc3Cl)n(Cc3cc(F)c(F)c(F)c3)c2=O)n1 [Compound I-021] | < 1000 nM | –
17 | Cc1nc2cc(Cl)c(Nc3nc(=O)n(Cc4ncn(C)n4)c(=O)n3Cc3cc(F)c(F)c(F)c3)cc2n1C [Compound I-022] | 1000 to 10000 nM | –
18 | N#Cc1cc(Cn2c(Nc3cc4cn(C(F)F)nc4cc3Cl)nc(=O)n(-c3cncc4ccccc34)c2=O)ccc1F [Compound I-024] | < 1000 nM | –

Row | Molecule | EC50 (SARS-CoV-2) | other results
19 | Cn1cc2cc(Nc3nc(=O)n(-c4cncc5ccccc45)c(=O)n3Cc3ccc(F)c(C#N)c3)c(F)cc2n1 [Compound I-025] | < 1000 nM | –
20 | Cc1cncc(-n2c(=O)nc(Nc3cc4cn(C(F)F)nc4cc3Cl)n(Cc3ccc(F)c(C#N)c3)c2=O)c1 [Compound I-026] | < 1000 nM | –
21 | Cc1cc2nn(C)cc2cc1Nc1nc(=O)n(-c2cncc3ccccc23)c(=O)n1Cc1ccc(F)c(C#N)c1 [Compound I-027] | < 1000 nM | –
22 | Cn1cnc(Cn2c(=O)nc(Nc3cc4cn(CCO)nc4cc3Cl)n(Cc3cc(F)c(F)c(F)c3)c2=O)n1 [Compound I-028] | 1000 to 10000 nM | –
23 | Cn1cnc(Cn2c(=O)nc(Nc3cc4cn(CC(F)F)nc4cc3Cl)n(Cc3cc(F)c(F)c(F)c3)c2=O)n1 [Compound I-029] | < 1000 nM | –
24 | Cn1cnc(Cn2c(=O)nc(Nc3cc4cn(C(F)F)nc4cc3Cl)n(Cc3cc(F)c(F)c(F)c3)c2=O)n1 [Compound I-030] | 1000 to 10000 nM | –
25 | N#Cc1cc(Cn2c(Nc3cc4cn(CCO)nc4cc3Cl)nc(=O)n(-c3cncc4ccccc34)c2=O)ccc1F [Compound I-031] | 1000 to 10000 nM | IC50 (SARS-CoV-2 3CL Protease; [7]): < 100 nM
26 | Cc1nc2cc(Cl)c(Nc3nc(=O)n(-c4cncc5ccccc45)c(=O)n3Cc3cc(F)c(F)c(F)c3)cc2n1C [Compound I-032] | 1000 to 10000 nM | IC50 (SARS-CoV-2 3CL Protease; [7]): < 100 nM
27 | CC(=O)NCCn1cc2cc(Nc3nc(=O)n(-c4cncc5ccccc45)c(=O)n3Cc3cc(F)c(F)c(F)c3)c(Cl)cc2n1 [Compound I-033] | 1000 to 10000 nM | –
28 | O=c1nc(Nc2ccc3nn(CC(F)F)cc3c2)n(Cc2cc(F)c(F)c(F)c2)c(=O)n1-c1cncc2ccccc12 [Compound I-034] | < 1000 nM | –
29 | O=c1nc(NO)ccn1[C@@H]1O[C@H](CO)[C@@H](O)[C@H]1O [EIDD-1931, reference compound] | – | EC50 ([1]; read-out: EC50 of single agent): 1500 nM; EC50 ([3]; read-out: EC50 of single agent): 690 nM
30 | CC(C)(C)[C@H](NC(=O)C(F)(F)F)C(=O)N1C[C@H]2[C@@H]([C@H]1C(=O)N[C@H](C#N)C[C@@H]1CCNC1=O)C2(C)C [PF-07321332, reference compound] | – | EC50 [3, 5]: 7100 nM
31 | CCC(CC)COC(=O)[C@H](C)N[P@](=O)(OC[C@H]1O[C@@](C#N)(c2ccc3c(N)ncnn23)[C@H](O)[C@@H]1O)Oc1ccccc1 [Remdesivir, reference compound] | – | EC50 [1, 4]: 2300 nM; EC50 [2]: 2000 nM; EC50 ([3]; Severe acute respiratory syndrome coronavirus 2, VeroE6/TMPRSS2, 72 h, single agent, hCoV-19/Japan/TY/WK-521/2020, […]): 2500 nM
32 | Bebtelovimab: anti-SARS-CoV-2 monoclonal antibody | – | EC50 of single agent [2]: 0.0231(μg/mL)
33 | Casirivimab: anti-SARS-CoV-2 monoclonal antibody | – | EC50 of single agent [3, 8]: 0.077 [μg/mL]
34 | Imdevimab: anti-SARS-CoV-2 monoclonal antibody | – | EC50 of single agent [3, 8]: 0.047 [μg/mL]
35 | Sotrovimab: anti-SARS-CoV-2 monoclonal antibody | – | EC50 of single agent [2]: 1.06(μg/mL)
